Assay results as given in patent US20240307414A1, “METHODS AND MATERIALS FOR TREATING PROSTATE CANCER” (Mayo Foundation for Medical Education and Research, priority 2020, published 2024).
Entries after “also recorded” stand apart in the source; their conditions may differ. Where two headings read alike, the source gives them in different places.

Tests used:
[1] = test system: LNCaP parental and LNCaP-AbiRes cells; experiment: Cytotoxicity and proliferation assay (Cyquant direct assay), LNCaP parental and AbiRes; format: cell-based, human; conditions: for IC50: LNCaP, single treatment preliminary experiments, concentration used in combination with Abi (FIG. 6B), except PD-0325901, read-out: Concentrations corresponding to IC50 of each drug
Description: (§1) 22Rv1 and LNCaP cells purchased from ATCC were routinely cultured in RPMI1640 medium (Gibco, Grand Island, NY) supplemented with 10% FBS (Atlanta Biologicals, Flowery Branch, GA) and 1% Pen-Strep. […] Abi resistant cells (LNCaP-AbiRes or 22Rv1-AbiRes) were compared with parental cells for viability and gene expression after Abi and other treatments.
(§2) Forty eight hours before abiraterone treatment, cell was seeded in phenol red-free RPMI (Gibco, Grand Island, NY) supplemented with 10% charcoal stripped FBS (Thermo Fisher Scientific, Waltham, MA), and 50 nM pregnenolone was added after 24 hours.

[2] = test system: 11 genes (CCNA2, CCNB1, CCNB2, PRC1, SMC2, DLGAP5, ECT2, FBXO5, CDK1, NCAPG, KIF4A); experiment: qRT-PCR of the 11 genes in cell lines and PDX organoids after drug treatment; format: cell-based, human; conditions: for expression of the 11 genes (qRT-PCR): 22Rv1 and LNCaP parental/AbiRes cells, organoids MC-PRX-01 and MC-PRX-05, alone or with Abi
Description: Total RNA for qRT-PCR was extracted from tumor organoids or cell lines using Quick-RNA MiniPrep Kit (Zymo Research, Irvine, CA) according to the manufacturer's instructions. qRT-PCR was performed using the Power SYBR® Green RNA-to-CT 1-Step Kit (Life Technologies, Grand Island, NY) and QuantiTect® (QIAGEN, Germantown, MD) or PrimeTime® (IDT, Inc., Coralville, Iowa) pre-designed qPCR primers (IDT Coralville, IA). Gene expression analyses were performed using ΔΔCt method, and β-actin was used as the internal reference. Three independent experiments were performed. Primer sequences are in Table 1.

[3] = test system: 22Rv1 parental and 22Rv1-AbiRes cells; experiment: Cytotoxicity and proliferation assay (Cyquant direct assay), 22Rv1 parental and AbiRes; format: cell-based, human; conditions: single treatment preliminary experiments, concentration used in combination with Abi (FIG. 6A), read-out: Concentrations corresponding to IC50 of each drug
Description: as §1, §2

MC-PRX-01 PDX tumor = experiment: MC-PRX-01 PDX model treated with abiraterone ± palbociclib/PHA-793887, 35 days; format: in vivo, mice
Description: All patient specimens were collected as part of the PROMOTE study as described elsewhere (see, for example, Champoux. Annu. Rev. Biochem., 70, 369-413 (2001); and Kellner et al., Lancet Oncol., 3, 235-243 (2002)). Briefly, pathology confirmed metastatic tumor biopsy tissues of mCRPC was renal capsule xenografted and 25 mg testosterone pellet was subcutaneously implanted into 6-8 weeks old male CB17 NOD-SCID mice (Jackson laboratories, Bar Harbor, Maine; Charles River Laboratories, Raleigh, North Carolina) and observed for at least 6 months or till the tumor reached 1.0-1.5 cm at maximal length, when sub-xenografts were expanded by subcutaneous implantation with harvested PDX tumor mixed with Matrigel (Corning, Corning, New York) with no exogenous testosterone supplied. Early generation PDX tumors were collected for cryo-storage and next-generation sequencing. Pathology confirmed PDX model generated from AA/P non-responder bone metastatic tumor biopsy tissues were employed to test the in vivo tumor response to abiraterone+Mito/Dox/Palb/PHA. After PDX tumor reached approximately 100 mm3, mice were randomized to 6 groups. […] Body weight and tumor volumes (width^2×length/2) were measured two to three times per week with a digital caliper, and the average tumor volumes were determined. At the end of the treatment period, mice were euthanized and the tumors were removed, dissected and frozen at −80° C. for further analysis.

[4] = test system: metastatic / castration-resistant prostate cancer; conditions: patients, literature; cited from earlier work
[5] = test system: PDX organoids MC-PRX-01 and MC-PRX-05; experiment: PDX derived organoid culture and cytotoxicity assay (3D cell titer)
[6] = test system: 11 genes in MC-PRX-01 and MC-PRX-06 PDX tumors; experiment: qRT-PCR of the 11 genes in post treatment PDX tumors; format: in vivo, mice; conditions: MC-PRX-01 and MC-PRX-06 tumors harvested after treatment

With `O=C(NOC[C@H](O)CO)c1ccc(F)c(F)c1Nc1ccc(I)cc1F` [PD-0325901, mirdametinib] the “response of LNCaP cells to the MEK inhibitor” value ([1]; LNCaP harbors a Q56P mutation) was “conferring resistance to this MEK inhibitor” and the “expression of the 11 genes (qRT-PCR)” value [2] was “less consistency in the suppression”.

In the case of `CC(C)CC(=O)Nc1n[nH]c2c1CN(C(=O)C1CCN(C)CC1)C2(C)C` [PHA-793887], the IC50 [3] is reported as 100 nM, the IC50 [1] is reported as 100 nM and the “expression of the 11 genes (qRT-PCR)” value [2] is reported as “less consistency in the suppression”. The tumor growth (MC-PRX-01 PDX tumor; 35 days) was “inhibited tumor growth”, the “tumor growth inhibition as single treatment” value (MC-PRX-01 PDX tumor; 35 days, tested dosage) was “did not exhibit statistically significant inhibition” and the “sensitization of the tumor to Abi treatment” value (MC-PRX-01 PDX tumor; combination with Abi) was “sensitize the tumor to Abi treatment”.

In the case of `CC(=O)O[C@H]1CC[C@@]2(C)C(=CC[C@@H]3[C@@H]2CC[C@]2(C)C(c4cccnc4)=CC[C@@H]32)C1` [abiraterone acetate], the overall survival [4] is given as “extend overall survival significantly”.

For `C[C@]12CC[C@H](O)CC1=CC[C@@H]1[C@@H]2CC[C@]2(C)C(c3cccnc3)=CC[C@@H]12` [abiraterone], the “inhibition of organoid growth” value ([5]; abiraterone alone at the highest tested concentration, MC-PRX-01 and MC-PRX-05 organoids) was “less than 10%”.

In the case of `COc1cccc2c1C(=O)c1c(O)c3c(c(O)c1C2=O)C[C@@](O)(C(=O)CO)C[C@@H]3O[C@H]1C[C@H](N)[C@H](O)[C@H](C)O1` [doxorubicin], the “expression of the 11 genes in PDX tumors after treatment (qRT-PCR)” value [6] is reported as “significantly downregulated”.

In the case of `O=C1c2c(O)ccc(O)c2C(=O)c2c(NCCNCCO)ccc(NCCNCCO)c21` [mitoxantrone], the IC50 ([1]; Homo sapiens) is reported as 10 nM, the “expression of the 11 genes (qRT-PCR)” value [2] is reported as “most consistently suppressed the expression of the 11 genes; also recorded: more significant effects on the 11 gene suppression” and the “suppression of the 11 genes in LNCaP Abi-resistant cells compared to parental cells” value ([2]; LNCaP AbiRes vs parental) is reported as “better suppression effects”. For the same compound, the “expression of the 11 genes in PDX tumors after treatment (qRT-PCR)” value [6] was “significantly downregulated” and the “potency relative to the other identified drugs in cytotoxicity experiments” value ([5]; range of doses tested, FIG. 6) was “superior to others; also recorded: most potent”.
